# Data published in ChEMBL document CHEMBL1201862, “PubChem BioAssay data set” (2004).
# Activity calls are given as the source filed them.
# Columns and labels:
# [1] = molecular target: T1, Trace amine-associated receptor 1 (Homo sapiens, UniProt Q96RJ0); assay: Fluorescence-based cell-based high throughput dose response assay to identify agonists of the human trace amine associated receptor 1 (TAAR1).; type: functional
# [2] = molecular target: T1, Trace amine-associated receptor 1; assay: Counterscreen for agonists of the human trace amine associated receptor 1 (hTAAR1): Fluorescence-based cell-based high throughput dose response assay to identify hTAAR1 agonist that also desensitize TAAR1 receptor response.; type: functional
# [3] = cells; type: functional, cell-based
# [4] = cells; type: functional, cell-based; remark: listed apart in the source
# [5] = inhibitors of non-replicating M. tuberculosis, dose response, luciferase, dry powder (AID 651619); type: functional; conditions: Mycobacterium tuberculosis
# [6] = inhibitors of non-replicating M. tuberculosis, dose response, luciferase, dry powder (AID 651620); type: functional; conditions: Mycobacterium tuberculosis
# [7] = growth inhibition of replicating M. tuberculosis, dose response, counter-screen, dry powder, IC90 (AID 651617); type: functional; conditions: Mycobacterium tuberculosis
# [8] = molecular target: Mu-type opioid receptor (Homo sapiens, UniProt P35372); assay: Late-stage results from the probe development effort to identify antagonists of OPRK1: luminescence-based cell-based dose response OPRM1 counterscreen.; type: functional
# Sequence of Mu-type opioid receptor (P35372 whole entry): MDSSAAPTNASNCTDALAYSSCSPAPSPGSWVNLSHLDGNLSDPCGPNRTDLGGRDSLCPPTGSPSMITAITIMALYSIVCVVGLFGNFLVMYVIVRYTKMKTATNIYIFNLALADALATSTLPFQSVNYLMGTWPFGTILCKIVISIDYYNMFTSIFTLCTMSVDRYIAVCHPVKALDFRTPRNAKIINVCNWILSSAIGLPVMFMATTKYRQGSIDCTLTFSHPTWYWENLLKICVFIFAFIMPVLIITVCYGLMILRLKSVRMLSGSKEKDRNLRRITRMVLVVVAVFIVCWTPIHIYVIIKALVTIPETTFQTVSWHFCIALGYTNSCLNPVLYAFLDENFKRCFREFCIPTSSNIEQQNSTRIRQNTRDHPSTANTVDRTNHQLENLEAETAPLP
# [9] = molecular target: Delta-type opioid receptor (Homo sapiens, UniProt P41143); assay: Late-stage results from the probe development effort to identify antagonists of OPRK1: fluorescence-based cell-based dose response OPRD1 counterscreen.; type: functional
# Sequence of Delta-type opioid receptor (P41143 whole entry): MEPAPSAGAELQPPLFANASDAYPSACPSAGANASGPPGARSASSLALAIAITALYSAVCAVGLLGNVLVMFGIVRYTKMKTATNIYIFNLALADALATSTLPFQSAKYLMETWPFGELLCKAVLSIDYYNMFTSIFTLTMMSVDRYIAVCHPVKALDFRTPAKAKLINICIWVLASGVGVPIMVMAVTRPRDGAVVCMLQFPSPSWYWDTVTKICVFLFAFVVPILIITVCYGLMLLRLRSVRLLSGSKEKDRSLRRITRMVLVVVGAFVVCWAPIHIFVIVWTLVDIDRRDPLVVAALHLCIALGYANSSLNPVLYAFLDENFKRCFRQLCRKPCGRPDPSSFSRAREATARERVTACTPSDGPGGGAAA
# [10] = potency of ADAM10 substrate cleavage blockers – biochemical, QFRET, dose response (AID 743254);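 also: ADAM10 enzyme with the DM2 quenched FRET peptide as substrate; EDANS fluorescence gain as the protease cuts the substrate; inhibitor potency against ADAM10 proteolytic activity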
# [11] = molecular target: Disintegrin and metalloproteinase domain-containing protein 17 (Homo sapiens, UniProt P78536); assay: inhibition of ADAM17 substrate cleavage – biochemical, quenched FRET substrate, counter-screen for ADAM10 exosite inhibitor project, dose response (AID 743253)
# Sequence of Disintegrin and metalloproteinase domain-containing protein 17 (P78536 whole entry, the tested form may be a part): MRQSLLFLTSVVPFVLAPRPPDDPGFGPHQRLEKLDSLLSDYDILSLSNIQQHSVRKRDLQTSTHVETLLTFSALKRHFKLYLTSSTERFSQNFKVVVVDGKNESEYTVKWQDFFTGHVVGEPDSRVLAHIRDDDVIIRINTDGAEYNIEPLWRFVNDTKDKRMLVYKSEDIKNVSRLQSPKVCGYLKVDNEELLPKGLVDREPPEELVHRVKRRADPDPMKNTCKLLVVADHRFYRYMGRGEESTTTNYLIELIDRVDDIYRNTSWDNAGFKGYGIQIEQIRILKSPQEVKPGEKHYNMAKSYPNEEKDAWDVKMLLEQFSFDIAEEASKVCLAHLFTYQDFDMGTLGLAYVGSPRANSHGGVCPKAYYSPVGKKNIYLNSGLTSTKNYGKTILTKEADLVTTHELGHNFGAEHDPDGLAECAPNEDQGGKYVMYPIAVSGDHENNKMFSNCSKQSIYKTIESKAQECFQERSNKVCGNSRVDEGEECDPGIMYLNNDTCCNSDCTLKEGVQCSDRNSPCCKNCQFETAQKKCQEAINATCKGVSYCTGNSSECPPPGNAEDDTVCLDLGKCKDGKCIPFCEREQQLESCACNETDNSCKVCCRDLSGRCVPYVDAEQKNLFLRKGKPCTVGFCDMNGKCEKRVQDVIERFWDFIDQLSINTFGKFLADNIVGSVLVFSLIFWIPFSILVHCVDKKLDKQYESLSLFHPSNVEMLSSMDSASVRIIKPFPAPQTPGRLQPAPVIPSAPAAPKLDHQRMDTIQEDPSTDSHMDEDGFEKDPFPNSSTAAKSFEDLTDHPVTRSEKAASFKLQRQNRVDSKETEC
# [12] = cytotoxicity in MITF-independent A375 cells – cell-based, CellTiter-Glo luminescence, dry powder, set 4, counter-screen for MITF inhibitor project, dose response (AID 624364); type: functional; conditions: A-375;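 also: A375 melanoma cells are MITF independent so this is a counter screen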
# [13] = viability loss in MITF-independent A375 cells – cell-based, CellTiter-Glo luminescence, dry powder, set 2, counter-screen for MITF inhibitor project, dose response (AID 624489); type: functional; conditions: A-375;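 also: actives are compounds lowering A375 viability meaning general cytotoxicity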
# [14] = IC50 of insulin release inhibition, rat insulinoma INS-1E line, 5 mM glucose, cell-based (AID 1117331); type: functional
# [15] = system: BHK-21; assay: viability loss in BHK-21 cells – cell-based, plate reader, cherry-pick samples, cytotoxicity control, dose response (AID 687030); type: functional; conditions: Mesocricetus auratus
# [16] = system: Vero; assay: viability loss in Vero cells – cell-based, plate reader, cherry-pick samples, cytotoxicity control, dose response (AID 687020); type: functional; conditions: Chlorocebus sabaeus
# [17] = system: A549; assay: viability loss in A549 cells – cell-based, plate reader, cherry-pick samples, cytotoxicity control, dose response (AID 687028); type: functional; conditions: Homo sapiens
# [18] = molecular target: E3 ubiquitin-protein ligase UHRF1 (Homo sapiens, UniProt Q96T88); assay: Counterscreen for inhibitors of 5-meCpG-binding domain protein 2 (MBD2): TRFRET-based biochemical high throughput dose response assay to identify inhibitors of binding of ubiquitin-like with PHD and ring finger domains 1 (UHRF1) to methylated oligonucleotide.
# Sequence of E3 ubiquitin-protein ligase UHRF1 (Q96T88 whole entry, the tested form may be a part): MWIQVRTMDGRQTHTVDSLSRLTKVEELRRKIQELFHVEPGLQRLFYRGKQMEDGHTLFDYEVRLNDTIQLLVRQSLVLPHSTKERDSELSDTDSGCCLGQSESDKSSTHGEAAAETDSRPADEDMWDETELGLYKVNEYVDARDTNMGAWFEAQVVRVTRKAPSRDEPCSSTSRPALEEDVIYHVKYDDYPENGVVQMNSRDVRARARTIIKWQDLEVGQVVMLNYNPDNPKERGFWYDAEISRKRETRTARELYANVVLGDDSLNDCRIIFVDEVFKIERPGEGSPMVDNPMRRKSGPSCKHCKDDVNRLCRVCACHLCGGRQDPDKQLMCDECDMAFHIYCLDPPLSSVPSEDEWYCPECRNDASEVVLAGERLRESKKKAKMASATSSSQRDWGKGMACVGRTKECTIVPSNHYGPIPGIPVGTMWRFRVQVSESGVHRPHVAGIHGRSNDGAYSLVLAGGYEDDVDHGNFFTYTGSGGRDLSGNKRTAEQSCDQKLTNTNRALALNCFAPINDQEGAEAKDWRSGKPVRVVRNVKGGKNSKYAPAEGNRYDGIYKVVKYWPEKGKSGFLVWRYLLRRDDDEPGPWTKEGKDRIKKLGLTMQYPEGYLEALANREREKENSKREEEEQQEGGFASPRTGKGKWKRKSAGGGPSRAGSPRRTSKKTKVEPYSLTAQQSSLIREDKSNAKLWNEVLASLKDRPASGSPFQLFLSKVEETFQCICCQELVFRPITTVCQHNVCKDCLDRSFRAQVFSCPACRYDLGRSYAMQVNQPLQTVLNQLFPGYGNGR
# T1 sequence (Q96RJ0 whole entry): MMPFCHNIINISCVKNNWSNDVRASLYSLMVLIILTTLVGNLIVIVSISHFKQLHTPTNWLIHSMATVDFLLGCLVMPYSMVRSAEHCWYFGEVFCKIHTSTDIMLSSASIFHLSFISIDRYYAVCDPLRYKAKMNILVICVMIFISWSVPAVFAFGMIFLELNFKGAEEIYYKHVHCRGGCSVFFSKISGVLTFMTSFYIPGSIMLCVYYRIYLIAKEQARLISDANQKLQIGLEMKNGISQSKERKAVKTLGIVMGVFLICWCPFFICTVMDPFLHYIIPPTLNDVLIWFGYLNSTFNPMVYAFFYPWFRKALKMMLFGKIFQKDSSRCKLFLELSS
structure (smiles),measurement,setting,value
O=C(CSC1=Nc2ccc(F)cc2S(=O)(=O)N1)NCCc1ccccc1,EC50,[1],0.621 µM (active)
same,IC50,[2],3.52 µM (active)
same,IC50,[3],> 29.9 µM (inactive)
same,EC50,[4],> 29.9 µM (inactive)
c1ccc(-c2nnc(SCc3ccccn3)o2)cc1,IC90,[5],4 µM (active)
same,IC90,[6],4 µM (active)
same,IC90,[7],16 µM (active)
COC(=O)c1cc(Cl)cnc1N1CCC(NC2CCCCC2)CC1,IC50,[8],2 µM (active)
same,IC50,[9],39 µM (inactive)
O=C1NCN(c2ccccc2)C12CCN(C(c1cccc3ccccc13)c1nnnn1Cc1ccccc1)CC2 (stereo not drawn),IC50,[10],> 69.5 µM (inactive)
same,IC50,[11],> 69.5 µM (inactive)
O=C1C(NS(=O)(=O)c2ccc(Br)cc2)=C(c2ccc(OC(F)(F)F)cc2)C(=O)c2ccccc21,AC50,[12],> 70 µM (inactive)
same,AC50,[13],> 70 µM (inactive)
Cc1ccc(O)c([C@H](CCN(C(C)C)C(C)C)c2ccccc2)c1 [TOLTERODINE],IC50,[14],> 33.3 µM (inactive)
CCCCN(C(C)=O)c1ccc2c(c1)C1CC2CCN1Cc1ccccc1 (stereo not drawn),AC50,[15],33.7 µM (active)
same,AC50,[16],30.5 µM (active)
same,AC50,[17],30.3 µM (active)
NC1=C(c2nc3ccccc3s2)C(=O)CN1NC(=O)c1c[nH]c2ccccc12,IC50,[18],> 43.8 µM (inactive)
